Experimental data as given in patent publication US7871794B2, “Enhanced cell-free synthesis of active proteins containing disulfide bonds” (The Board of Trustees of the Leland Stanford Junior …, priority 2007, dated 2011).

Assays:
reduction of GSSG = assay: Assay for the reduction of oxidized glutathione in PANOx-SP cell-free reactions; assay type: biochemical, E. coli
Protocol: For determining the effect of pH and IAM concentration on GSSG stabilization, the pH of S30 extracts was adjusted by first adding a small volume of 10 M KOH or HCl to the bottom of an Eppendorf tube. A much larger volume of S30 extract was then rapidly mixed with the small volume of acid or base. The pH was measured with a standardized micro-pH probe (Model 9810BN, Orion, Beverly, Mass.). Several 15 μL PANOx-SP reactions supplemented with 5 mM GSSG and the pK7CAT plasmid were prepared at each pH and IAM concentration. Single reactions were terminated at 15, 38, 60, 90, 120, and 180 minutes for each condition, and the concentration of SH groups was measured as described below.
Assay for the Reduction of Oxidized Glutathione. The reduction of oxidized glutathione was measured by monitoring the increase in concentration of sulfhydryl groups over time. The entire 15 μL in vitro synthesis reaction was diluted with an equal volume of 10% trichloroacetic acid and centrifuged for 10 minutes at 12,000×g and 4° C. Ten microliters of the supernatant was added to wells of a 96-well microtiter plate. To each well, 90 μL of 1 M Tris-HCl (pH 7.8) with 0.44 mg/mL DTNB (5,5′-dithiobis-2-nitrobenzoic acid, TCI America) was added. After 3 minutes at room temperature, the absorbance at 412 nm was measured and the concentration of free thiols determined by comparison to a standard curve determined with GSH solutions of known concentration.

[1] = target: T1, thioredoxin reductase (TrxB) (Escherichia coli, UniProt P0A9P4); assay: Assay for thioredoxin reductase activity after IAM treatment at various pHs; assay type: biochemical, E. coli; conditions: 7 mM IAM, 30 minutes at room temperature
T1 construct: made in house; host or cells: cell-free (in vitro) synthesis reaction, E. coli extract
T1 sequence (P0A9P4 whole entry): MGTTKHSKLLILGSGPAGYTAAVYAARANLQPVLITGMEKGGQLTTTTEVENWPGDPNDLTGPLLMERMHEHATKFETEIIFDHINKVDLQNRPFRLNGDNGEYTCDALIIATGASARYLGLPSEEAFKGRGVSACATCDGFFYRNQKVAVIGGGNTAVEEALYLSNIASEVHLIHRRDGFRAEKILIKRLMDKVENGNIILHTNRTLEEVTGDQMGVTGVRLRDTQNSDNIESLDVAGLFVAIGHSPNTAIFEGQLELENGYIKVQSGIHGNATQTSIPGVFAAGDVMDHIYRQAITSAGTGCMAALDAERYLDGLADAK
Protocol: Assay for Thioredoxin Reductase Activity. Thioredoxin reductase was produced in in vitro synthesis reactions as described previously (Knapp and Swartz (2004) FEBS Lett 559:66-70). The pHs of aliquots of the unpurified reaction product were adjusted to the desired values with small volumes of concentrated KOH or HCl. These aliquots were then mixed with a small volume of IAM concentrate to obtain a final IAM concentration of 7 mM. These samples were incubated at room temperature for 30 minutes, and then the thioredoxin reductase activity of the samples was measured. The activity assay for thioredoxin reductase contained the following components: 50 mM NaH2PO4 pH 7.6, 1.5 mM EDTA, 10 mM glucose 6-phosphate, 200 μM DTNB, 300 μM NADPH, 3 μM E. coli thioredoxin (EMD Biosciences; Darmstadt, Germany), and 0.2 U glucose 6-phosphate dehydrogenase (Sigma). Approximately 500 ng of thioredoxin reductase was added to 1 mL of the assay mixture and the rate of increase in absorbance at 412 nm was measured for 90 seconds at 37° C. DTNB produces two molecules of nitrothiobenzoate when it is reduced. The extinction coefficient of nitrothiobenzoate (13,600 M^−1 cm^−1) was used to calculate the rate of reaction.

SMILES: NC(=O)CI [IAM, iodoacetamide]
- effect on sulfhydryl groups at IAM concentrations greater than 50 μM (reduction of GSSG; KGK10 extract): slow rate of oxidation of sulfhydryls
- IAM concentration sufficient to eliminate the reduction of GSSG (reduction of GSSG; KGK10 extract, IAM treatment near physiological pH): 50 µM
- IAM needed to stabilize the oxidized glutathione buffer, KGK10 extract versus KC6 extract (reduction of GSSG; in vitro synthesis reactions containing 5 mM GSSG): Twenty-fold less
- pH at which IAM inactivation of TrxB begins to lose its effectiveness [1]: ~5.8
